In the NIST ThermoML archive (doi:10.1016/j.jct.2007.05.005):

Experiment: xn = mol fraction of the nth substance listed
Details: 101.3 kPa, Liquid; for speed of sound: Sing-around technique in a fixed-path interferometer

CCOC(C)(C)C [2-ethoxy-2-methylpropane] + CC(C)(C)O
Details	mass density, 303.15 K [kg/m3]	mass density, 313.15 K [kg/m3]	mass density, 323.15 K [kg/m3]	speed of sound, 303.15 K [m/s]	speed of sound, 313.15 K [m/s]	speed of sound, 323.15 K [m/s]
x1 = 0.06	770.981	760.486	749.635	1085.9	1043.4	1001.6
x1 = 0.093	768.859	758.385	747.565	1079.5	1037.4	996.19
x1 = 0.2	762.345	751.936	741.141	1062.9	1021.9	980.83
x1 = 0.298	757.005	746.63	735.846	1050.7	1010.1	969.12
x1 = 0.386	752.738	742.309	731.52	1041.5	1000.3	959.27
x1 = 0.488	748.226	737.777	726.96	1033.5	992.26	950.9
x1 = 0.632	742.556	732.028	721.169	1024.7	982.68	940.83
x1 = 0.685	740.622	730.077	719.198	1022.1	979.93	937.72
x1 = 0.796	736.85	726.255	715.369	1017.9	975.09	932.37
x1 = 0.896	733.592	722.99	712.15	1014.9	971.48	928.25
x1 = 0.949	731.862	721.29	710.507	1013.4	969.31	925.71
x1 = 1	730.186	719.687	708.996	1010.2	965.87	922.08
